Results as given in patent publication US20080234262A1 (Wyeth, priority 2007, published 2008).
Like-named read-outs stand apart in the source and are kept apart here.

Tests used:
[1] = target: PI3K (Homo sapiens, UniProt P42336); experiment: Fluorescence polarization assay for PI3K; type: biochemical;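 note: PI3K kinase reaction on PIP2 with ATP, 30-60 min, product sensed by GST-GRP with red probe in fluorescence polarization (mP), controls without enzyme and at zero time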
[2] = test system: breast line MDA468; experiment: In vitro cell culture growth assay (MTS), MDA468; type: cell-based, human; conditions: Homo sapiens, 72 h, MDA468 cells, three days after drug treatment
Method in brief: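 Cells were plated and, one day later, exposed to inhibitors for three days; viable cell density was then measured by metabolic conversion of MTS dye, read as absorbance at 490 nm. Growth is expressed as percent of vehicle-treated control cells on the same plate.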

[3] = test system: prostate line LNCap; experiment: In vitro cell culture growth assay (MTS), LNCap; type: cell-based, human; conditions: Homo sapiens, 72 h, LNCap cells, three days after drug treatment

Chain of PI3K (P42336 whole entry): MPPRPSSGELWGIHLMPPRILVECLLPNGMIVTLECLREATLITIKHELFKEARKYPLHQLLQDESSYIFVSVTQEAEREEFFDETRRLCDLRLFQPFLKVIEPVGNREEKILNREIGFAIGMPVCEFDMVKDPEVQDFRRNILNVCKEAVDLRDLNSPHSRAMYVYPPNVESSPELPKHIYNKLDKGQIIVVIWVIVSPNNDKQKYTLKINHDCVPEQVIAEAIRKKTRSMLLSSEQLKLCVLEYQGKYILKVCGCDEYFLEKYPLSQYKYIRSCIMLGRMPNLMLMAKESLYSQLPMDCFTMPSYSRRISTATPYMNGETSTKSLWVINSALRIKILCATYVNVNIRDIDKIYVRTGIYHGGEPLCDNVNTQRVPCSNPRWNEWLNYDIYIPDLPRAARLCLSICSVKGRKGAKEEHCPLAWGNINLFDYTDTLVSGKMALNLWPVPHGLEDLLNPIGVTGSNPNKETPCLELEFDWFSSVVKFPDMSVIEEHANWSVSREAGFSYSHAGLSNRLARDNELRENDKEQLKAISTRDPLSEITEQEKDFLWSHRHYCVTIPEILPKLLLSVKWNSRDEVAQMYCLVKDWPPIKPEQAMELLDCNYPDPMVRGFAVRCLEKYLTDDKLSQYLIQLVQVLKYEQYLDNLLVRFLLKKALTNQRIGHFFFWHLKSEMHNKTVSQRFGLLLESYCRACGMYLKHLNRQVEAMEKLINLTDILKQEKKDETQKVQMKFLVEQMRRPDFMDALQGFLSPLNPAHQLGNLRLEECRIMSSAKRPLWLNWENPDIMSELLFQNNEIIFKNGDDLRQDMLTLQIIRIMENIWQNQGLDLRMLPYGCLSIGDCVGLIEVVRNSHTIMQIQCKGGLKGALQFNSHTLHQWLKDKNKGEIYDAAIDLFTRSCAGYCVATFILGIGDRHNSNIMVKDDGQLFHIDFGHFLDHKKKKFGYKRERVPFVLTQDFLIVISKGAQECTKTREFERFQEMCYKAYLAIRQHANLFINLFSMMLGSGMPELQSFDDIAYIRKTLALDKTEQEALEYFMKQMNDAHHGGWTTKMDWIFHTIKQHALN
Chain of PI3K (P27986 whole entry partner): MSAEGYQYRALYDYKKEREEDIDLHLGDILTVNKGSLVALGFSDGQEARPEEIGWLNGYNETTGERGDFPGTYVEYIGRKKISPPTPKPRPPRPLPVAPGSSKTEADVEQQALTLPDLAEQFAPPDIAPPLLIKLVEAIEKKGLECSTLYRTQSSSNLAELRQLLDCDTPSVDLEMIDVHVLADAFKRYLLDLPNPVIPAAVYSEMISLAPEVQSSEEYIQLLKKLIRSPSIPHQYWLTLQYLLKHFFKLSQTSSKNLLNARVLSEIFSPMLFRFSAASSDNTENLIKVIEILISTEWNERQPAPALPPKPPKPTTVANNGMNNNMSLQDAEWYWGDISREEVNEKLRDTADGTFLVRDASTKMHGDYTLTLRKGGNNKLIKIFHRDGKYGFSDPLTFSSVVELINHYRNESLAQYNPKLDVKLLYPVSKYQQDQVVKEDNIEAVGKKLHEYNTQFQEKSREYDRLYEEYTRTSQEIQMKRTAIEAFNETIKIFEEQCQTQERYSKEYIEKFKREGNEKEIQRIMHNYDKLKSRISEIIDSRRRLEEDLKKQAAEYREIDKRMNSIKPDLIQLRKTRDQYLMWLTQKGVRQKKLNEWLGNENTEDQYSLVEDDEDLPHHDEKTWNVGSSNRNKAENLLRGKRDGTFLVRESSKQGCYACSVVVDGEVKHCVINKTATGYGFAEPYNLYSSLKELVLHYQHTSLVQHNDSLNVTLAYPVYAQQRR

| SMILES | IC50 ([1]; PI3Kα, read-out: PI3Kα IC50) | IC50 [2] | IC50 ([3]; LNCaP) | IC50 ([1]; PI3Kα IC50, PI3Kα) | IC50 [3] |
| --- | --- | --- | --- | --- | --- |
| CN(C)CC=CC(=O)N1CCC(n2ncc3c(N4CCOCC4)nc(-c4ccc5[nH]ccc5c4)nc32)CC1 [Compound 234, 4-{4-[6-(1H-indol-5-yl)-4-morpholin-4-yl-1H-pyrazolo[3,4-d]pyrimidin-1-yl]piperidin-1-yl}-N,N-dimethyl-4-oxobut-2-en-1-amine] | 0.481 µM | 2 µM | 1 µM |  |  |
| c1cc2cc(-c3nc(N4CCOCC4)c4cnn(C5CCCCO5)c4n3)ccc2[nH]1 (stereo not drawn) [Compound 237, 6-(1H-indol-5-yl)-4-morpholin-4-yl-1-(tetrahydro-2H-pyran-2-yl)-1H-pyrazolo[3,4-d]pyrimidine] | 2.42 µM | 1 µM | 4.2 µM |  |  |
| CC(C)N1CCC(n2ncc3c(N4CCOCC4)nc(-c4ccc5[nH]ccc5c4)nc32)CC1 [Compound 238, 6-(1H-indol-5-yl)-1-(1-isopropylpiperidin-4-yl)-4-morpholin-4-yl-1H-pyrazolo[3,4-d]pyrimidine] | 3.75 µM | 2.9 µM | 2.5 µM |  |  |
| c1ccc(CCN2CCC(n3ncc4c(N5CCOCC5)nc(-c5ccc6[nH]ccc6c5)nc43)CC2)cc1 [Compound 239, 6-(1H-indol-5-yl)-4-morpholin-4-yl-1-[1-(2-phenylethyl)piperidin-4-yl]-1H-pyrazolo[3,4-d]pyrimidine] | 3.09 µM | 3.1 µM | 0.78 µM |  |  |
| CC(c1ccccc1)N1CCC(n2ncc3c(N4CCOCC4)nc(-c4ccc5[nH]ccc5c4)nc32)CC1 (stereo not drawn) [Compound 240, 6-(1H-indol-5-yl)-4-morpholin-4-yl-1-[1-(1-phenylethyl)piperidin-4-yl]-1H-pyrazolo[3,4-d]pyrimidine] | 2.67 µM | 3.5 µM | 3.8 µM |  |  |
| COCCN1CCC(n2ncc3c(N4CCOCC4)nc(-c4ccc5[nH]ccc5c4)nc32)CC1 [Compound 241, 6-(1H-indol-5-yl)-1-[1-(2-methoxyethyl)piperidin-4-yl]-4-morpholin-4-yl-1H-pyrazolo[3,4-d]pyrimidine] | 5 µM | 4.2 µM | 2.4 µM |  |  |
| O=C(Cc1ccccc1)N1CCC(n2ncc3c(N4CCOCC4)nc(-c4ccc5[nH]ccc5c4)nc32)CC1 [Compound 242, 6-(1H-indol-5-yl)-4-morpholin-4-yl-1-[1-(phenylacetyl)piperidin-4-yl]-1H-pyrazolo[3,4-d]pyrimidine] | 0.692 µM | 3 µM | 0.7 µM |  |  |
| O=C(Oc1ccccc1)N1CCC(n2ncc3c(N4CCOCC4)nc(-c4ccc5[nH]ccc5c4)nc32)CC1 [Compound 243, phenyl 4-[6-(1H-indol-5-yl)-4-morpholin-4-yl-1H-pyrazolo[3,4-d]pyrimidin-1-yl]piperidine-1-carboxylate] |  | 4.3 µM |  | 0.535 µM | 1.3 µM |
| NC(=O)CN1CCC(n2ncc3c(N4CCOCC4)nc(-c4ccc5[nH]ccc5c4)nc32)CC1 [Compound 245, 2-{4-[6-(1H-indol-5-yl)-4-morpholin-4-yl-1H-pyrazolo[3,4-d]pyrimidin-1-yl]piperidin-1-yl}acetamide] | 2.66 µM | 2.8 µM | 0.8 µM |  |  |
| OCCN1CCC(n2ncc3c(N4CCOCC4)nc(-c4ccc5[nH]ccc5c4)nc32)CC1 [Compound 246, 2-{4-[6-(1H-indol-5-yl)-4-morpholin-4-yl-1H-pyrazolo[3,4-d]pyrimidin-1-yl]piperidin-1-yl}ethanol] | 3.99 µM | 3 µM | 1.8 µM |  |  |
| OCCCN1CCC(n2ncc3c(N4CCOCC4)nc(-c4ccc5[nH]ccc5c4)nc32)CC1 [Compound 247, 3-{4-[6-(1H-indol-5-yl)-4-morpholin-4-yl-1H-pyrazolo[3,4-d]pyrimidin-1-yl]piperidin-1-yl}propan-1-ol] | 7.29 µM | 3 µM | 2.5 µM |  |  |
| c1cc2cc(-c3nc(N4CCOCC4)c4cn[nH]c4n3)ccc2[nH]1 [Compound 248, 6-(1H-indol-5-yl)-4-morpholin-4-yl-1H-pyrazolo[3,4-d]pyrimidine] | 0.939 µM | 9 µM | 3.5 µM |  |  |
| O=CN1CCC(n2ncc3c(N4CCOCC4)nc(-c4ccc5[nH]ccc5c4)nc32)CC1 [Compound 251, 4-[6-(1H-indol-5-yl)-4-morpholin-4-yl-1H-pyrazolo[3,4-d]pyrimidin-1-yl]piperidine-1-carbaldehyde] | 2.8 µM | 3 µM | 1 µM |  |  |
| O=C(NCCc1ccccc1)Nc1ccc(-c2nc(N3CCOCC3)c3cnn(C4CCN(Cc5ccccc5)CC4)c3n2)cc1 [Compound 259, 1-{4-[1-(1-benzylpiperidin-4-yl)-4-morpholin-4-yl-1H-pyrazolo[3,4-d]pyrimidin-6-yl]phenyl}-3-(2-phenylethyl)urea] | 2.14 µM | 20 µM | 1 µM |  |  |
| O=C(NCCCc1ccccc1)Nc1ccc(-c2nc(N3CCOCC3)c3cnn(C4CCN(Cc5ccccc5)CC4)c3n2)cc1 [Compound 260, 1-{4-[1-(1-benzylpiperidin-4-yl)-4-morpholin-4-yl-1H-pyrazolo[3,4-d]pyrimidin-6-yl]phenyl}-3-(3-phenylpropyl)urea] | 7.03 µM | 60 µM | 4.5 µM |  |  |
| COCCCNC(=O)Nc1ccc(-c2nc(N3CCOCC3)c3cnn(C4CCN(Cc5ccccc5)CC4)c3n2)cc1 [Compound 270, 1-{4-[1-(1-benzylpiperidin-4-yl)-4-morpholin-4-yl-1H-pyrazolo[3,4-d]pyrimidin-6-yl]phenyl}-3-(3-methoxypropyl)urea] | 0.753 µM | 3.2 µM | 0.6 µM |  |  |
| CN(C)CCCNC(=O)Nc1ccc(-c2nc(N3CCOCC3)c3cnn(C4CCN(Cc5ccccc5)CC4)c3n2)cc1 [Compound 271, 1-{4-[1-(1-benzylpiperidin-4-yl)-4-morpholin-4-yl-1H-pyrazolo[3,4-d]pyrimidin-6-yl]phenyl}-3-[3-(dimethylamino)propyl]urea] | 0.158 µM | 2 µM | 0.65 µM |  |  |
| COc1cccc(C(=O)Nc2ccc(-c3nc(N4CCOCC4)c4cnn(C5CCCCO5)c4n3)cc2)c1 (stereo not drawn) [Compound 273, 3-methoxy-N-{4-[4-morpholin-4-yl-1-(tetrahydro-2H-pyran-2-yl)-1H-pyrazolo[3,4-d]pyrimidin-6-yl]phenyl}benzamide] | 8.32 µM | 60 µM | 1.95 µM |  |  |
| CN(C)CC(=O)Nc1ccc(-c2nc(N3CCOCC3)c3cnn(C4CCCCO4)c3n2)cc1 (stereo not drawn) [Compound 275] | 9 µM | 40 µM | 12 µM |  |  |
| CN(C)c1ccc(CC(=O)Nc2ccc(-c3nc(N4CCOCC4)c4cnn(C5CCCCO5)c4n3)cc2)cc1 (stereo not drawn) [Compound 276, 2-[4-(dimethylamino)phenyl]-N-{4-[4-morpholin-4-yl-1-(tetrahydro-2H-pyran-2-yl)-1H-pyrazolo[3,4-d]pyrimidin-6-yl]phenyl}acetamide] | 6.47 µM | 60 µM | 11 µM |  |  |
| O=C(Nc1ccc(-c2nc(N3CCOCC3)c3cn[nH]c3n2)cc1)c1cccnc1 [Compound 278, N-[4-(4-morpholin-4-yl-1H-pyrazolo[3,4-d]pyrimidin-6-yl)phenyl]nicotinamide] | 1.17 µM | 60 µM | 7.2 µM |  |  |
| COC(=O)Nc1ccc(-c2nc(N3CCOCC3)c3cn[nH]c3n2)cc1 [Compound 279, methyl [4-(4-morpholin-4-yl-1H-pyrazolo[3,4-d]pyrimidin-6-yl)phenyl]carbamate] | 0.612 µM | 12 µM | 3 µM |  |  |
| C=CC(=O)Nc1ccc(-c2nc(N3CCOCC3)c3cn[nH]c3n2)cc1 [Compound 280, N-[4-(4-morpholin-4-yl-1H-pyrazolo[3,4-d]pyrimidin-6-yl)phenyl]acrylamide] | 0.601 µM | 7 µM | 3.4 µM |  |  |
| CN(C)CC(=O)Nc1ccc(-c2nc(N3CCOCC3)c3cn[nH]c3n2)cc1 [Compound 281, N~2~,N~2~-dimethyl-N-[4-(4-morpholin-4-yl-1H-pyrazolo[3,4-d]pyrimidin-6-yl)phenyl]glycinamide] | 2.27 µM | 18 µM | 7 µM |  |  |
| NCC(=O)Nc1ccc(-c2nc(N3CCOCC3)c3cn[nH]c3n2)cc1 [Compound 282, N-[4-(4-morpholin-4-yl-1H-pyrazolo[3,4-d]pyrimidin-6-yl)phenyl]glycinamide] | 0.128 µM | 11 µM | 9 µM |  |  |
| NCCC(=O)Nc1ccc(-c2nc(N3CCOCC3)c3cn[nH]c3n2)cc1 [Compound 283] | 0.203 µM | 13 µM | 1.5 µM |  |  |
| CN1CCC(C(=O)Nc2ccc(-c3nc(N4CCOCC4)c4cn[nH]c4n3)cc2)CC1 [Compound 284, 1-methyl-N-[4-(4-morpholin-4-yl-1H-pyrazolo[3,4-d]pyrimidin-6-yl)phenyl]piperidine-4-carboxamide] | 0.885 µM | 22 µM | 5.3 µM |  |  |
| O=C(Nc1ccc(-c2nc(N3CCOCC3)c3cnn(C4CCN(Cc5ccccc5)CC4)c3n2)cc1)NN1CCCC1 [Compound 291, 1-{4-[1-(1-benzylpiperidin-4-yl)-4-morpholin-4-yl-1H-pyrazolo[3,4-d]pyrimidin-6-yl]phenyl}-3-pyrrolidin-1-ylurea] | 4.23 µM | 10 µM | 3 µM |  |  |
| CONC(=O)Nc1ccc(-c2nc(N3CCOCC3)c3cnn(-c4ccccc4)c3n2)cc1 [Compound 295, 1-methoxy-3-[4-(4-morpholin-4-yl-1-phenyl-1H-pyrazolo[3,4-d]pyrimidin-6-yl)phenyl]urea] | 0.404 µM | 5 µM | 1.8 µM |  |  |
| C=CCONC(=O)Nc1ccc(-c2nc(N3CCOCC3)c3cnn(-c4ccccc4)c3n2)cc1 [Compound 296, 1-(allyloxy)-3-[4-(4-morpholin-4-yl-1-phenyl-1H-pyrazolo[3,4-d]pyrimidin-6-yl)phenyl]urea] | 0.896 µM | 60 µM | 3 µM |  |  |
